Converted amounts (≈) assume the structure as drawn. Peptide text beside a SMILES is read from it.
Tests used:
[1] = test system: HaCaT cells; assay: Cellular uptake of CF-labeled peptides into HaCaT cells (flow cytometry and confocal microscopy); type: cell-based, human; conditions: 10 µM CF-labeled peptides, 30 min, 37 °C, confocal microscopy
Method: Cells were seeded in a µ-slide 8-well (Ibidi) plate (HaCaT 90,000; HeLa 45,000) and grown to 70–80% confluency. Then, the cells were incubated with CF-labeled peptides in serum-free medium for the requested time at either 4 °C or 37 °C as indicated. The nuclei were stained for 10 min with 0.6 µl Hoechst 33342 nuclear dye (bisbenzimide H33342, 1 mg/ml in H2O, sterile filtered) prior to the end of peptide incubation. Finally, the solutions were removed and cells were treated for 30 s with trypan blue (150 µM in 0.1 M acetate buffer, pH 4.15) for quenching external fluorescence. After washing twice with PBS, 300 µl of FBS-containing growth medium were added to each well. Images were taken by using a Nikon Eclipse Ti confocal laser scanning microscope equipped with a 60x oil-immersion objective (N.A. 1.4, Plan APO VC, Nikon). Images were recorded with Nikon EZ-C1 software and adjusted equally with ImageJ software.
For treatment with endocytosis inhibitor, 80 µM of dynasore (in serum-free medium, Sigma-Aldrich) was added to the cells. After 1 h of incubation at 37 °C, CF-labeled peptide solution (in serum-free medium, 10 µM final) was added and incubated for further 30 min. Afterwards, the cells were handled as described above.
Cells were seeded in triplicate in a 24-well plate (HaCaT 370,000; HeLa 170,000) and grown to 70–80% confluency under normal growth conditions. […]

[2] = test system: human keratinocytes HaCaT; assay: MTT cell viability assay on HaCaT keratinocytes; type: cell-based; conditions: 24 h, 37 °C; for Effect on HaCaT cells at higher concentrations: >50 µM; for Cytotoxic effect on keratinocytes viability: 10 to 100 µM, serum-free medium, triplicate, n = 3
Method: Figure 2 Cytotoxic profile of peptides against human keratinocytes HaCaT. Cells were incubated with indicated concentrations of peptides at 37 °C for 24 h. Cell viability of HaCaT cells was determined by MTT assay relative to untreated cells (set to 100%). As positive control, cells were treated with 70% EtOH for 10 min. Experiments were conducted in triplicate with n = 3. Error bars represent standard deviation. (**p < 0.01; ***p < 0.001).
The toxic effect of the investigated peptides on HaCaT cells was evaluated using the [3(4,5-dimethylthiazol-2yl)2,5-diphenyltetrazolium bromide] (MTT) colorimetric method. MTT is a tetrazolium salt which is reduced to a purple colored formazan product by mitochondrial reductases, present only in metabolically active cells. Keratinocytes were seeded onto a 96-well microtiter plate at a density of 8 × 10^4 cells per well in DMEMg supplemented with 2 mM L-Gln and 2% FBS. After reaching 70–80% confluency, the medium was removed and cells were incubated at 37 °C for 24 h with peptides at different concentrations ranging from 10 to 100 µM (in serum-free medium). After 24 h of incubation, 10 µl of MTT (in PBS, 0.45 mg/ml final) were added to each well. After 4 h incubation, the supernatants were removed and the formazan crystals were dissolved by adding 100 μl of dimethyl sulfoxide (DMSO). For the positive control, cells were treated with 70% EtOH for 10 min. The absorption was measured at 570 nm and at a reference wavelength of 630 nm using Tecan infinite M200 plate reader.

[3] = cited from earlier work
Description: Therefore, it was particularly interesting whether the combination of both, Tylotoin ...

[4] = test system: HeLa cells; assay: Resazurin-based cell viability assay on HeLa cells; design: species or system human; conditions: 24 h, serum-free RPMI, triplicate, n = 3
Method: Figure 9 The efficacy of Tylotoin-sC18* towards cancer cells. Microscopic image of HeLa cells treated for 30 min with CF-labeled Tylotoin-sC18* (10 µM, green) at 37 °C (A). Quantification of the cellular uptake of 10 µM CF-labeled peptides for 30 min at 37 °C by flow cytometry (B). Cell viability of HeLa cells after treatment for 24 h with Tylotoin-sC18*, sC18* and Tylotoin, respectively (C). Cells treated with 70% ethanol served as positive control. Data are normalized to untreated cells (100% cell viability). Experiments were performed in triplicate with n = 3. Error bars represent standard deviation. (*p < 0.05).
For a resazurin-based cell viability assay, HeLa cells were seeded onto a 96-well plate, grown to 70–80% confluency and incubated with various concentrations of peptides in serum-free RPMI growth medium for 24 h under standard growth conditions. For the positive control, cells were treated with 70% EtOH for 10 min. After washing with serum-free medium, resazurin solution (10% in serum-free media, v/v) was incubated with the cells for 1 h at 37 °C. Subsequently, cell viability was determined relative to untreated cells by measurement of the resorufin product at 595 nm (λex = 550 nm) on a Tecan infinite M200 plate reader.

[5] = cited from earlier work; remark: listed apart in the source
Description: So far, very few studies have been conducted for the use of CPPs in the application field of human skin wound healing[12]–[14]. Thus, to our knowledge, we report for the first time on the fusion of a well-characterized cell penetrating peptide, namely sC18, to a wound healing promoting peptide sequence Tylotoin. This latter short peptide was recently identified and isolated from the skin of the salamander Tylototriton verrucosus. […] More precisely, Tylotoin ...

[6] = test system: Micrococcus luteus; type: cell-based, Micrococcus luteus (DSM 20030); conditions: 6 h
Method: HaCaT (immortalized human keratinocytes) and HeLa (human cervix carcinoma) cells were cultured in sterile 10 cm petri dishes at 37 °C in a humidified atmosphere of 5% CO2. HaCaT cells were maintained in DMEM containing 4,500 mg/l glucose (DMEMg), 2 mM L-Gln and 10% FBS (fetal bovine serum). HeLa cells were grown in RPMI 1640 supplemented with 4 mM L-Gln and 10% FBS. Bacteria used were Micrococcus luteus (DSM 20030) and Salmonella typhimurium (TA 100). Mueller Hinton (MH) broth agar plates were used for maintenance und MH broth medium was used to carry out antimicrobial activity studies.
Antimicrobial activity of peptide conjugates against gram-positive and gram-negative bacteria was conducted using the p-iodonitrotetrazolium-chloride (INT) violet assay as previously described. INT is a tetrazolium-based reagent which is converted to a pink formazan dye in the presence of metabolically active bacteria.
In brief, M. luteus and S. typhimurium were cultured in MH broth overnight at 37 °C while mild shaking (180 rpm). Overnight-cultured bacteria were added into fresh medium, grown to an optical density of 0.7 at 600 nm and 10 µl bacterial solution were added in triplicate to wells of a 96-well plate (BD Falcon, USA). […] The viability of bacteria relative to untreated bacteria was determined by measuring the absorption at 540 nm on a Tecan infinite M200 plate reader.

[7] = test system: Salmonella typhimurium; conditions: 6 h
Method: Antimicrobial activity of peptide conjugates against gram-positive and gram-negative bacteria was conducted using the p-iodonitrotetrazolium-chloride (INT) violet assay as previously described[33].
In brief, M. luteus and S. typhimurium were cultured in MH broth overnight at 37 °C while mild shaking (180 rpm). Overnight-cultured bacteria were added into fresh medium, grown to an optical density of 0.7 at 600 nm and 10 µl bacterial solution were added in triplicate to wells of a 96-well plate (BD Falcon, USA). The peptides used at various concentrations and 180 µl of MH medium were added to each corresponding well and incubated for 6 h at 37 °C. 10 µM chloramphenicol served as positive control and H20 was used as negative control. After incubation time, 10 μl of the freshly prepared INT solution (1 mg/ml in DMSO) were added to each well and incubated for further 30 min at 37 °C. The viability of bacteria relative to untreated bacteria was determined by measuring the absorption at 540 nm on a Tecan infinite M200 plate reader.

[8] = Circular dichroism spectroscopy (secondary structure); type: physicochemical; conditions: for Percentage of the α-helix content: phosphate buffer / Percentage of the α-helix content: 50% TFE: CD, 20 µM peptide, calculated from ellipticity at 222 nm; for Percentage of the α-helix content: phosphate buffer: 10 mM phosphate buffer pH 7.0, 20 °C; for Percentage of the α-helix content: 50% TFE: 10 mM phosphate buffer pH 7.0 with 50% TFE, 20 °C; for R-value: ratio between molar ellipticity values at 222 and 208 nm, in the presence of 50% TFE, R = 1 perfect α-helix
Method: Figure 1 Structural characteristics of investigated peptides. CD spectra were acquired at a peptide concentration of 20 µM in 10 mM phosphate buffer, pH 7.0 (A) and in the additional presence of 50% TFE (B). The percentage of the α-helix content was calculated from the ellipticity value at 222 nm using the following formula: (% α-helix = ((([Θ222]−3000)⁄(−36000−3000)) × 100)[47] (C). R-values represent the ratio between the molar ellipticity values at 222 and 208 nm[20] and R = 1 defined as hallmark for a perfectly built α-helix[48]. Helical wheel projections of Tylotoin-sC18* and sC18*-Tylotoin predicted by HeliQuest (D). TEXT PRINTED IN THE PICTURE: (C) Tylotoin-sC18: Percentage of the α-helix content: phosphate buffer: 12.1; Percentage of the α-helix content: 50% TFE: 46.3; R-value: 0.85 | (C) sC18-Tylotoin: Percentage of the α-helix content: phosphate buffer: 13.1; Percentage of the α-helix content: 50% TFE: 43.5; R-value: 0.87 | (C) Tylotoin-sC18*: Percentage of the α-helix content: phosphate buffer: 10.7; Percentage of the α-helix content: 50% TFE: 46.3; R-value: 0.77 | (C) sC18*-Tylotoin: Percentage of the α-helix content: phosphate buffer: 6.9; Percentage of the α-helix content: 50% TFE: 40.5; R-value: 0.74 | (C) Tylotoin: Percentage of the α-helix content: phosphate buffer: 15.6; Percentage of the α-helix content: 50% TFE: 25.0; R-value: 0.51
CD spectra were recorded from 180 nm to 270 nm in 0.5 nm intervals at 20 °C using a JASCO J-715 spectropolarimeter in an N2 atmosphere. The CD spectra were measured using a 1 mm quartz cuvette and the instrument parameters were set as follows: sensitivity, 100 mdeg; scan mode, continuous; scan speed, 50 nm/min; response time, 2 sec and bandwidth, 1.0 nm. Peptides were dissolved in 10 mM potassium phosphate buffer (pH 7.0) containing either 0 or 50% (v/v) trifluoroethanol (TFE) to a final peptide concentration of 20 µM.

Compound	Effect on HaCaT cells at higher concentrations [2]	Antimicrobial activity [3]	Cytotoxic effect on keratinocytes viability [2]	Percentage of the α-helix content: phosphate buffer [8]	Percentage of the α-helix content: 50% TFE [8]	R-value [8]	other results
GLRKRLRKFRNKIKEK-NH2 [sC18, cell penetrating peptide recently developed in the authors' group; control peptide]	negatively affect the cells	moderate antimicrobial activities					Intracellular distribution in keratinocytes [1]: some nuclear uptake was visible
KCVRQNNKRVCK-NH2 [Tylotoin, wound healing promoting peptide from skin of the salamander Tylototriton verrucosus; made as C-terminal amide without disulfide bridge, reference compound]		did not show any antimicrobial activity	no cytotoxic effect at all	15.6%	25.0%	0.51	Cell viability of HeLa cells [4]: remained unharmed; Wound healing in a murine model [5]: promote wound healing similar to hEGF; Antimicrobial activity against M. luteus ([6]; INT assay, 37 °C): no antimicrobial activity; Proliferation of HaCaT cells [2]: enhance the proliferation; Antimicrobial activity against S. typhimurium ([7]; INT assay, 37 °C): no antimicrobial activities
GLRKRLRKFRNKIKEKKCVRQNNKRVCK-NH2 [sC18-Tylotoin, chimeric peptide, CPP sC18 fused N-terminally to Tylotoin]	negatively affect the cells			13.1%	43.5%	0.87	
CC(C)C[C@H](NC(=O)CNC(=O)[C@H](CCCCN)NC(=O)[C@H](CS)NC(=O)[C@@H](NC(=O)[C@H](CCCNC(=N)N)NC(=O)[C@H](CCCCN)NC(=O)[C@H](CC(N)=O)NC(=O)[C@H](CC(N)=O)NC(=O)[C@H](CCC(N)=O)NC(=O)[C@H](CCCNC(=N)N)NC(=O)[C@@H](NC(=O)[C@H](CS)NC(=O)[C@@H](N)CCCCN)C(C)C)C(C)C)C(=O)N[C@@H](CCCNC(=N)N)C(=O)N[C@@H](CCCCN)C(=O)N[C@@H](CCCNC(=N)N)C(=O)N[C@@H](CC(C)C)C(=O)N[C@@H](CCCNC(=N)N)C(=O)N[C@@H](CCCCN)C(=O)N[C@@H](Cc1ccccc1)C(=O)N[C@@H](CCCNC(=N)N)C(=O)N[C@@H](CC(N)=O)C(=O)N[C@@H](CCCCN)C(N)=O [Tylotoin-sC18*] (H-KCVRQNNKRVCKGLRKRLRKFRNK-NH2; N-terminus assumed)							MIC value [6]: 13.47 µM (≈ 40.8 µg/mL); MIC value ([7]; murium): ~ 12.64 µM
GLRKRLRKFRNKKCVRQNNKRVCK-NH2 [sC18*-Tylotoin, chimeric peptide, CPP sC18* fused N-terminally to Tylotoin]			slight decrease in cell viability	6.9%	40.5%	0.74	Difference in relative cell viability between sC18* and sC18*-Tylotoin [2]: about 40%
KCVRQNNKRVCKGLRKRLRKFRNKIKEK-NH2 [Tylotoin-sC18, chimeric peptide, CPP sC18 fused to the C-terminus of Tylotoin]			no cytotoxic effect at all	12.1%	46.3%	0.85	
